According to the supplement of paper PMC10331698:
± gives the standard deviation of the averaged measurements.

Legend:
Assay in all cases: level (log10 ratio to DMSO vehicle control); higher = higher biomarker level / cell amount than vehicle control
Conditions in all cases: in DMSO
[1] = compound: FC(F)(F)C(F)(F)C(F)(F)CI [Heptafluorobutyl iodide]
Protocol: (§1)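 BioMAP Diversity Plus panel of 12 human primary cell co-culture systems (3C, 4H, LPS, SAg, BT, BF4T, BE3C, CASM3C, HDF3CGF, KF3CT, MyoF, Mphg). Compounds were added 1 h before stimulation and left for 24 h (MyoF 48 h; BT 72 h for soluble read-outs or 6 d for IgG). Biomarkers were read by ELISA, cytotoxicity by SRB, PBMC viability and proliferation by Alamar Blue. Each well value was divided by the mean of 8 DMSO control wells on the same plate and log10 transformed; duplicate blinded samples were tested at 4 concentrations.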

[2] = compound: FC(F)(F)C(F)(F)C(F)(F)CC1CO1 [1H,1H-Heptafluorobutyl epoxide]
Protocol: as §1

[3] = compound: O=C(O)C(F)(F)C(F)(F)C(F)(F)C(F)(F)C(F)(F)C(F)(F)C(F)(F)C(F)(F)C(F)(F)C(F)F [11-H-Perfluoroundecanoic acid]
Protocol: as §1

[4] = compound: NC(=O)C(F)(F)C(F)(F)C(F)(F)C(F)F
Protocol: as §1

[5] = compound: O=S(=O)(Cl)C(F)(F)C(F)(F)C(F)(F)C(F)(F)C(F)(F)C(F)(F)C(F)(F)C(F)(F)F [Perfluoro-1-octanesulfonyl chloride]
Protocol: as §1

[6] = compound: O=S(=O)(F)C(F)(F)C(F)(F)C(F)(F)C(F)(F)C(F)(F)C(F)(F)C(F)(F)C(F)(F)F [Perfluorooctanesulfonyl fluoride]
Protocol: as §1

[7] = compound: FC(F)(F)C(F)(F)CNCC(F)(F)C(F)(F)F [Bis(1H,1H-perfluoropropyl)amine]
Protocol: as §1

Row | Test System | level (log10) ([1]; 6700 nM) | level (log10) ([1]; 20000 nM) | level (log10) ([1]; 60000 nM) | level (log10) ([2]; 6700 nM) | level (log10) ([2]; 20000 nM) | level (log10) ([2]; 60000 nM) | level (log10) ([3]; 6700 nM) | level (log10) ([3]; 20000 nM) | level (log10) ([4]; 6700 nM) | level (log10) ([4]; 20000 nM) | level (log10) ([4]; 60000 nM) | level (log10) ([5]; 6700 nM) | level (log10) ([5]; 20000 nM) | level (log10) ([5]; 60000 nM) | level (log10) ([6]; 6700 nM) | level (log10) ([6]; 20000 nM) | level (log10) ([6]; 60000 nM) | level (log10) ([7]; 6700 nM) | level (log10) ([7]; 20000 nM) | level (log10) ([7]; 60000 nM)
1 | BE3C:EGFR | -0.015 ± 0.017 | -0.019 ± 0.0071 | 0.0015 ± 0.005 | -0.0025 ± 0.0064 | -0.0045 ± 0.0064 | -0.018 ± 0.0042 | -0.0125 ± 0.021 | -0.12 ± 0.0057 | 0.0055 ± 0.019 | 0.0065 ± 0.032 | -0.008 ± 0.0099 | -0.0135 ± 0.019 | -0.0285 ± 0.00071 | -0.121 ± 0.014 | 0.0125 ± 0.0064 | 0.017 ± 0.025 | -0.0095 ± 0.012 | -0.011 ± 0.014 | -0.008 ± 0.0057 | 0.0065 ± 0.021
2 | SAg:PBMC Cytotoxicity | -0.015 ± 0.025 | 0.0035 ± 0.005 | 0.003 ± 0.0099 | -0.0095 ± 0.0092 | -0.005 ± 0.013 | 0.0345 ± 0.011 | 0.002 ± 0.045 | 0.0035 ± 0.021 | 0.018 ± 0.016 | -0.008 ± 0.011 | 0.0425 ± 0.067 | 0.01 ± 0.025 | 0.0045 ± 0.016 | 0.067 ± 0.0085 | -0.0155 ± 0.029 | 0.0105 ± 0.022 | 0.011 ± 0.027 | 0.01 ± 0.013 | -0.011 ± 0.0028 | -0.0055 ± 0.037
3 | SAg:CD62E/E-Selectin | -0.0225 ± 0.026 | 0.0065 ± 0.00071 | -0.025 ± 0.014 | -0.0065 ± 0.043 | -0.013 ± 0.0057 | -0.015 ± 0.016 | 0.007 ± 0.021 | 0.0035 ± 0.005 | 0.005 ± 0.04 | -0.0135 ± 0.039 | 0.0155 ± 0.036 | -0.0055 ± 0.013 | 0.0155 ± 0.019 | 0.127 ± 0.016 | 0.02 ± 0.05 | -0.0115 ± 0.0035 | -0.0035 ± 0.019 | 0.001 ± 0.013 | -0.0075 ± 0.016 | 0.01 ± 0.031
4 | SAg:CXCL9/MIG | -0.007 ± 0.0028 | -0.0025 ± 0.0021 | -0.0085 ± 0.0092 | -0.0155 ± 0.0078 | -0.0165 ± 0.015 | -0.0065 ± 0.018 | -0.005 ± 0.011 | -0.011 | -0.0015 ± 0.0021 | -0.0055 ± 0.005 | 0.0105 ± 0.0021 | -0.007 ± 0.0071 | -0.018 ± 0.0028 | 0.0075 ± 0.021 | -0.005 ± 0.0014 | -0.0015 ± 0.0078 | 0.002 ± 0.018 | -0.0045 ± 0.0021 | -0.0045 ± 0.0035 | 0.0075 ± 0.012
5 | SAg:CD38 | -0.0205 ± 0.021 | -0.027 ± 0.016 | -0.017 ± 0.031 | 0.0025 ± 0.012 | -0.025 ± 0.0085 | -0.0125 ± 0.03 | -0.0045 ± 0.023 | 0.004 ± 0.04 | -0.034 ± 0.014 | -0.027 ± 0.02 | -0.0295 ± 0.0064 | -0.0105 ± 0.00071 | -0.018 ± 0.0014 | -0.058 ± 0.027 | -0.0015 ± 0.039 | 0.0035 ± 0.0092 | 0.0145 ± 0.005 | 0.001 ± 0.017 | -0.008 ± 0.018 | 0.002 ± 0.014
6 | BF4T:CCL2/MCP-1 | 0.0025 ± 0.028 | 0.068 ± 0.11 | 0.046 ± 0.023 | 0.005 ± 0.0014 | -0.0095 ± 0.0035 | 0.014 ± 0.0042 | -0.162 ± 0.02 | -0.2635 ± 0.0021 | 0.008 ± 0.0042 | -0.0135 ± 0.0092 | 0.0165 ± 0.047 | 0.038 ± 0.028 | -0.0205 ± 0.021 | -0.378 ± 0.021 | 0.006 ± 0.0071 | -0.0425 ± 0.0064 | -0.0055 ± 0.037 | -0.004 ± 0.014 | -0.009 ± 0.027 | -0.0295 ± 0.015
7 | BE3C:CXCL8/IL-8 | 0.029 ± 0.04 | 0.008 ± 0.037 | 0.021 ± 0.021 | 0.01 ± 0.062 | 0.0235 ± 0.029 | 0.0505 ± 0.081 | -0.0885 ± 0.016 | 0.0475 ± 0.05 | 0.025 ± 0.035 | 0.0405 ± 0.0078 | 0.0565 ± 0.04 | 0.0065 ± 0.005 | -0.0605 ± 0.0021 | -0.311 ± 0.17 | 0.0175 ± 0.0021 | 0.0295 ± 0.011 | 0.0615 ± 0.029 | -0.041 ± 0.073 | -0.0325 ± 0.036 | -0.008 ± 0.03
8 | BF4T:CD90 | 0.003 ± 0.018 | -0.009 ± 0.0028 | 0.001 ± 0.017 | -0.026 ± 0.014 | -0.0175 ± 0.0092 | -0.0125 ± 0.0078 | -0.0485 ± 0.028 | -0.0995 ± 0.029 | -0.002 ± 0.0085 | -0.0125 ± 0.0092 | 0.001 ± 0.0028 | 0.0005 ± 0.00071 | -0.019 | -0.028 ± 0.038 | -0.0065 ± 0.0078 | -0.014 ± 0.0057 | 0.0065 ± 0.0021 | -0.01 ± 0.0085 | -0.004 ± 0.0071 | 0.011 ± 0.018
9 | BT:sIL-17F | 0.033 ± 0.078 | 0.031 ± 0.016 | 0.029 ± 0.033 | 0.0235 ± 0.015 | -0.0505 ± 0.063 | 0.0025 ± 0.1 | 0.0115 ± 0.0092 | -0.0225 ± 0.049 | 0.0335 ± 0.019 | -0.0275 ± 0.015 | -0.018 ± 0.023 | 0.062 ± 0.054 | 0.0385 ± 0.0035 | 0.0705 ± 0.012 | -0.0145 ± 0.032 | -0.0345 ± 0.079 | 0.035 ± 0.12 | -0.088 ± 0.042 | -0.0175 ± 0.076 | 0.0375 ± 0.0064
10 | LPS:sTNF-alpha | -0.009 ± 0.017 | -0.0095 ± 0.016 | -0.009 ± 0.023 | -0.003 ± 0.014 | -0.0055 ± 0.012 | -0.014 ± 0.0085 | 0.0065 ± 0.0092 | 0.0135 ± 0.0035 | -0.0095 ± 0.0035 | -0.0095 ± 0.022 | -0.003 ± 0.031 | -0.0175 ± 0.044 | -0.002 ± 0.045 | -0.026 ± 0.052 | -0.009 ± 0.0057 | 0 ± 0.0014 | -0.0015 ± 0.013 | 0.007 ± 0.028 | 0.005 ± 0.013 | -0.0005 ± 0.0078
11 | BF4T:CCL26/Eotaxin-3 | -0.0245 ± 0.005 | 0.002 ± 0.023 | 0.048 ± 0.023 | -0.001 ± 0.013 | 0.0095 ± 0.0035 | 0.01 ± 0.011 | -0.122 ± 0.014 | -0.234 ± 0.018 | -0.001 ± 0.0085 | -0.012 ± 0.033 | 0.0005 ± 0.018 | -0.0515 ± 0.0064 | -0.142 ± 0.011 | -0.326 ± 0.051 | -0.0265 ± 0.021 | 0.0035 ± 0.016 | -0.014 ± 0.016 | -0.0275 ± 0.026 | -0.0245 ± 0.0021 | -0.0055 ± 0.053
12 | BE3C:CXCL10/IP-10 | -0.0015 ± 0.0064 | -0.005 ± 0.0057 | 0.005 ± 0.013 | -0.013 ± 0.0071 | -0.0065 ± 0.0092 | -0.012 ± 0.0042 | -0.141 ± 0.012 | -0.874 ± 0.014 | 0.0025 ± 0.0064 | -0.0015 ± 0.016 | 0.007 ± 0.013 | -0.0275 ± 0.0064 | -0.165 ± 0.033 | -0.927 ± 0.04 | 0.0095 ± 0.035 | 0.0115 ± 0.025 | 0.008 ± 0.03 | -0.017 ± 0.035 | -0.0075 ± 0.028 | -0.001 ± 0.0028
13 | SAg:CD69 | -0.0425 ± 0.043 | -0.045 ± 0.03 | -0.032 ± 0.037 | 0.0115 ± 0.00071 | 0.009 ± 0.0014 | 0 ± 0.031 | -0.01 ± 0.028 | -0.0235 ± 0.047 | 0.025 ± 0.0085 | 0.0175 ± 0.005 | 0.0495 ± 0.026 | -0.011 ± 0.0099 | -0.049 ± 0.04 | -0.0795 ± 0.049 | -0.0215 ± 0.0064 | -0.0105 ± 0.0064 | -0.0195 ± 0.0035 | 0.001 ± 0.0085 | -0.0075 ± 0.018 | -0.0125 ± 0.00071
14 | BF4T:CD54/ICAM-1 | -0.012 ± 0.011 | -0.008 ± 0.016 | -0.003 ± 0.031 | -0.027 ± 0.016 | -0.003 ± 0.035 | -0.0245 ± 0.018 | -0.0375 ± 0.0021 | -0.104 ± 0.016 | -0.0105 ± 0.015 | -0.0095 ± 0.022 | -0.0045 ± 0.0021 | -0.011 ± 0.0085 | -0.023 | -0.084 | -0.002 ± 0.0014 | -0.006 | -0.0045 ± 0.0021 | -0.0035 ± 0.0021 | -0.013 ± 0.0014 | 0.001 ± 0.04
15 | BF4T:CD106/VCAM-1 | -0.016 ± 0.0057 | -0.021 ± 0.0042 | 0.017 ± 0.045 | -0.0055 ± 0.015 | -0.015 ± 0.017 | -0.021 ± 0.0071 | -0.062 ± 0.0057 | -0.148 ± 0.079 | -0.015 ± 0.0028 | -0.014 ± 0.0042 | -0.003 ± 0.023 | -0.0255 ± 0.029 | -0.04 ± 0.028 | -0.126 ± 0.088 | -0.007 | -0.0355 ± 0.0021 | -0.044 ± 0.031 | -0.034 ± 0.0057 | -0.034 ± 0.017 | 0.008 ± 0.069
